From US20240383904A1, “HETEROCYCLIC COMPOUNDS” (Hoffmann-La Roche Inc., priority 2021, published 2024)

Target: T1, MAGL (Homo sapiens, UniProt Q99685)
T1 sequence (Q99685 1-303): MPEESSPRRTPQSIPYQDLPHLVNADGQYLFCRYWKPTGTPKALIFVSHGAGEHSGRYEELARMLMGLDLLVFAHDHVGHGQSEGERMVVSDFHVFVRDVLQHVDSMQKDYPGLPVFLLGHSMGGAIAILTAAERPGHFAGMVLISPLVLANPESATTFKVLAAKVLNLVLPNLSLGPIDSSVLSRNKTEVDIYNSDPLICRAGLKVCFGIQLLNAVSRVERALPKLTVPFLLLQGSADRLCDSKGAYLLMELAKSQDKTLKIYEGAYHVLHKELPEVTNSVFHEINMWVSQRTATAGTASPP
Assay: 2-AG assay: MAGL inhibitory activity by hydrolysis of 2-arachidonoylglycerol to arachidonic acid, followed by mass spectrometry
Type: biochemical
Conditions: 15 min preincubation, 30 min reaction at RT, 8 μM 2-arachidonoylglycerol
Text: Compounds of formula (I) were profiled for MAGL inhibitory activity by determining the enzymatic activity by following the hydrolysis of the natural substrate 2-arachidonoylglycerol (2-AG) resulting in arachidonic acid, which can be followed by mass spectrometry. This assay is hereinafter abbreviated “2-AG assay”.
Compounds of formula (I) were profiled for MAGL inhibitory activity by determining the enzymatic activity by following the hydrolysis of the natural substrate 2-arachidonoylglycerol (2-AG) resulting in arachidonic acid, which can be followed by mass spectrometry. This assay is hereinafter abbreviated “2-AG assay”. The 2-AG assay was carried out in 384 well polypropylene assay plates. Compound dilutions were made in 100% DMSO in a polypropylene plate in 3-fold dilution steps to give a final concentration range in the assay from 12.5 μM to […]. Compound dilutions were added to MAGL protein in assay buffer (50 mM TRIS, 1 mM EDTA, 0.01% (v/v) Tween-20, 2.5% (v/v) DMSO). After shaking, the plate was incubated for 15 min at RT. To start the reaction, 2-arachidonoylglycerol in assay buffer was added. The final concentrations in the assay was […] for MAGL protein and 8 μM 2-arachidonoylglyerol. After shaking and 30 min incubation at RT, the reaction was quenched by the addition of two assay volumes of acetonitrile containing 4 μM of d8-arachidonic acid. The amount of arachidonic acid formed was traced by an online SPE system (Agilent Rapidfire) coupled to a triple quadrupole mass spectrometer. A C18 SPE cartridge (Agilent G9205A) was used in an acetonitrile/water liquid setup. The mass spectrometer was operated in negative electrospray mode following the mass transitions 303.1→259.1 for arachidonic acid and 311.1→267.0 for d8-arachidonic acid. The activity of the compounds was calculated based on the ratio of intensities [arachidonic acid/d 8-arachidonic acid].

Row | Structure (SMILES) | IC50
1 | N=S(=O)(c1ccc(CC2CC3(C2)CN(C(=O)N2CC4(CCC(=O)N4)C2)C3)c(F)c1)C(F)(F)F (stereo not shown) [Example 265, 2-[6-[[2-fluoro-4-(trifluoromethylsulfoni-midoyl)phenyl]methyl]-2-azaspiro[3.3]heptane-2-carbonyl]-2,5-diazaspiro[3.5]octan-6-one] | 0.48 nM
2 | O=C1NC2(CO1)CN(C(=O)N1CC3(CCC(Cc4ccc(Cl)cn4)CC3)C1)C2 [Example 97, 2-[7-[(5-chloro-2-pyridyl)methyl]-2-azaspiro[3.5]nonane-2-carbonyl]-7-oxa-2,5-diazaspiro[3.4]octan-6-one] | 0.15 nM
3 | CS(=O)(=O)c1cc(C(F)(F)F)ccc1CC1CC2(C1)CN(C(=O)N1CC3(COCC(=O)N3)C1)C2 [Example 184, 2-[6-[[2-methylsulfonyl-4-(trifluoromethyl)phenyl]methyl]-2-azaspiro[3.3]heptane-2-carbonyl]-8-oxa-2,5-diazaspiro[3.5]nonan-6-one] | 210 nM
4 | CS(=O)(=O)c1cc(F)cc(CC2CC3(C2)CN(C(=O)N2CC4(CCC(=O)N4)C2)C3)c1 [Example 10, 2-[6-(3-fluoro-5-mesyl-benzyl)-2-azaspiro[3.3]heptane-2-carbonyl]-2,5-diazaspiro[3.4]octan-6-one] | 24.5 nM
5 | O=C1CCC2(CN(C(=O)N3CC4(CC(Cc5ccc(S(=O)(=O)C(F)(F)F)cc5)C4)C3)C2)N1 [Example 295, 2-[6-[[4-(trifluoromethylsulfonyl)phenyl]methy]-2-azaspiro[3.3]heptane-2-carbonyl]-2,5-diazaspiro[3.4]octan-6-one] | 0.07 nM
6 | O=C1NC2(CO1)CN(C(=O)N1CCC3(CC1)CN(Cc1ccc(C(F)(F)F)cc1F)C3)C2 [Example 92, 2-[2-[2-fluoro-4-(trifluoromethyl)benzyl]-2,7-diazaspiro[3.5]nonane-7-carbonyl]-7-oxa-2,5-diazaspiro[3.4]octan-6-one] | 0.65 nM
7 | O=C1NC2(CO1)CN(C(=O)N1CC3(CC(Cc4ccc(Cl)cn4)C3)C1)C2 [Example 20, 2-[6-[(5-chloro-2-pyridyl)methyl]-2-azaspiro[3.3]heptane-2-carbonyl]-7-oxa-2,5-diazaspiro[3.4]octan-6-one] | 0.31 nM
8 | O=C1COCC2(CN(C(=O)N3CC4(CC(Cc5ccc(F)cc5F)C4)C3)C2)N1 [Example 137, 2-[6-(2,4-difluorobenzyl)-2-azaspiro[3.3]heptane-2-carbonyl]-8-oxa-2,5-diazaspiro[3.5]nonan-6-one] | 0.97 nM
9 | O=C1NC2(CO1)CN(C(=O)N1CC3(CCC(Oc4ccc(C(F)(F)F)nn4)CC3)C1)C2 [Example 47, 2-[7-[6-(trifluoromethyl)pyrida-zin-3-y1]oxy-2-azaspiro[3.5]nonane-2-carbonyl]-7-oxa-2,5-diazaspiro[3.4]octan-6-one] | 2.94 nM
10 | N=[S@@](=O)(c1ccc(CC2CC3(C2)CN(C(=O)N2CC4(COCC(=O)N4)C2)C3)cc1)C(F)(F)F [Example 288, 2-[6-[[4-(trifluoromethylsulfoni-midoyl)phenyl]methyl]-2-azaspiro[3.3]heptane-2-carbonyl]-8-oxa-2,5-diazaspiro[3.5]nonan-6-one] | 8.91 nM
11 | CP(C)(=O)c1cc(F)cc(CC2CC3(C2)CN(C(=O)N2CC4(CCC(=O)N4)C2)C3)c1 [Example 339, 2-[6-(3-dimethylphosphoryl-5-fluoro-benzyl)-2-azaspiro[3.3]heptane-2-carbonyl]-2,5-diazaspiro[3.4]octan-6-one] | 215 nM
12 | N=[S@@](=O)(c1cccc(CC2CC3(C2)CN(C(=O)N2CC4(CCC(=O)N4)C2)C3)c1)C(F)(F)F [Example 289, 2-[6-[[3-(trifluoromethylsulfoni-midoyl)phenyl]methyl]-2-azaspiro[3.3]heptane-2-carbonyl]-2,5-diazaspiro[3.4]octan-6-one] | 0.44 nM
13 | O=C1CCC2(CN(C(=O)N3CC4(CCN(Cc5ccc(C(F)(F)F)nc5)CC4)C3)C2)N1 [Example 148, 2-[7-[[6-(trifluoromethyl)-3-pyridyl]methyl]-2,7-diazaspiro[3.5]nonane-2-carbonyl]-2,5-diazaspiro[3.4]octan-6-one] | 123 nM
14 | O=C1NC2(CO1)CN(C(=O)N1CC3(CC(c4cnc(C(F)(F)F)cn4)C3)C1)C2 [Example 63, 2-[6-[5-(trifluoromethyl)pyrazin-2-yl]-2-azaspiro[3.3]heptane-2-carbonyl]-7-oxa-2,5-diazaspiro[3.4]octan-6-one] | 1.28 nM
15 | O=C1CCC2(CN(C(=O)N3CC4(CC[C@@H](Cc5ccc(S(=O)(=O)C(F)(F)F)cc5)C4)C3)C2)N1 [Example 222, 2-[(6S)-6-[[4-(trifluoromethylsulfonyl)phenyl]methyl]-2-azaspiro[3.4]octane-2-carbonyl]-2,5-diazaspiro[3.4]octan-6-one] | 2.27 nM
16 | O=C1COCC2(CN(C(=O)N3CC4(CCC(OCC5(C(F)(F)F)CC5)CC4)C3)C2)N1 [Example 88, 2-[7-[[1-(trifluoromethyl)cyclopro-pyl]methoxy]-2-azaspiro[3.5]nonane-2-carbonyl]-8-oxa-2,5-diazaspiro[3.5]nonan-6-one] | 13.5 nM
17 | O=C1COCC2(CN(C(=O)N3CC4(CC(Cc5ccc(C(F)(F)F)nn5)C4)C3)C2)N1 [Example 231, 2-[6-[[6-(trifluoromethyl)pyrida-zin-3-yl]methyl]-2-azaspiro[3.3]heptane-2-carbonyl]-8-oxa-2,5-diazaspiro[3.5]nonan-6-one] | 255 nM
18 | N#Cc1ccc(CC2CC3(C2)CN(C(=O)N2CC4(CCCC(=O)N4)C2)C3)cc1C(F)(F)F [Example 270] | 72.4 nM
19 | N#Cc1cc(CC2CC3(C2)CN(C(=O)N2CC4(COC(=O)N4)C2)C3)cnc1C(F)(F)F [Example 243, 5-[[2-(6-oxo-7-oxa-2,5-diazaspiro[3.4]octane-2-carbonyl)-2-azaspiro[3.3]heptan-6-yl]methyl]-2-(trifluoromethyl)pyridine-3-carbonitrile] | 0.6 nM
20 | O=C1COCC2(CN(C(=O)N3CC4(CC(Cn5ncc(C(F)(F)F)n5)C4)C3)C2)N1 [Example 362, 2-[6-[[4-(trifluoromethyl)triazol-2-yl]methyl]-2-azaspiro[3.3]heptane-2-carbonyl]-8-oxa-2,5-diazaspiro[3.5]nonan-6-one] | 78.2 nM
21 | N#Cc1cc(CC2CC3(C2)CN(C(=O)N2CC4(CNC(=O)N4)C2)C3)ccc1C(F)(F)F [Example 17, 5-[[2-(6-keto-2,5,7-triazaspiro[3.4]octane-2-carbonyl)-2-azaspiro[3.3]heptan-6-yl]methyl]-2-(trifluoromethyl)benzoni-trile] | 3.29 nM
22 | O=C1NC2(CO1)CN(C(=O)N1CC3(CCC(Oc4ccnc(C(F)(F)F)n4)CC3)C1)C2 [Example 68, 2-[7-[2-(trifluoromethyl)pyrimi-din-4-yl]oxy-2-azaspiro[3.5]nonane-2-carbonyl]-7-oxa-2,5-diazaspiro[3.4]octan-6-one] | 2.13 nM
23 | O=C1CCC2(CN(C(=O)N3CC4(CN(Cc5nnc(C(F)(F)F)s5)C4)C3)C2)N1 [Example 342, 2-[6-[[5-(trifluoromethyl)-1,3,4-thiadiazol-2-yl]methyl]-2,6-diazaspiro[3.3]heptane-2-carbonyl]-2,5-diazaspiro[3.4]octan-6-one] | 1600 nM
24 | O=C1COCC2(CN(C(=O)N3CC4(CC[C@@H](Cc5cccc(S(=O)(=O)C(F)(F)F)c5)C4)C3)C2)N1 [Example 236, 2-[(6S)-6-[[3-(trifluoromethylsulfonyl)phenyl]methyl]-2-azaspiro[3.4]octane-2-carobnyl]-8-oxa-2,5-diazaspiro[3.5]nonan-6-one] | 2.16 nM
25 | O=C1CCC2(CN(C(=O)N3CC4(CC(Cc5ccc(S(=O)(=O)C6CC6)cc5)C4)C3)C2)N1 [Example 215, 2-[6-[(4-cyclopropylsulfonylphe-nyl)methyl]-2-azaspiro[3.3]heptane-2-carbonyl]-2,5-diazaspiro[3.4]octan-6-one] | 3.2 nM
26 | O=C1CCC2(CN(C(=O)N3CC4(CC(Cc5cnc(C(F)(F)F)cn5)C4)C3)C2)N1 [Example 4, 2-[6-[[5-(trifluoromethyl)pyrazin-2-yl]methyl]-2-azaspiro[3.3]heptane-2-carbonyl]-2,5-diazaspiro[3.4]octan-6-one] | 11.2 nM
27 | O=C1NC2(CO1)CN(C(=O)N1CC3(CCC(Cc4ccc(OC(F)F)nc4)CC3)C1)C2 [Example 105, 2-[7-[[6-(difluoromethoxy)-3-pyridyl]methyl]-2-azaspiro[3.5]nonane-2-carbonyl]-7-oxa-2,5-diazaspiro[3.4]octan-6-one] | 0.05 nM
28 | O=C1COCC2(CN(C(=O)N3CC4(CC(Cc5cncc(F)c5)C4)C3)C2)N1 [Example 180, 2-[6-[(5-fluoro-3-pyridyl)methyl]-2-azaspiro[3.3]heptane-2-carbonyl]-8-oxa-2,5-diazaspiro[3.5]nonan-6-one] | 202 nM
